Experimental data taken from US10538571B2, “Compositions and methods for neurological diseases” (Coda Biotherapeutics, Inc., priority 2017, dated 2020).

Experiments:
[1] = target: T1, engineered chimeric LGIC receptor SEQ ID NO:41 (as SEQ ID NO:33, further comprising the β1-β2 loop domain from GlyRα1) (Homo sapiens, UniProt P36544, F159M/H163T/I152M/K68T/N69T/Q70M/R155K/V154L/W156N/Y151P); assay: Two electrode voltage clamp currents in Xenopus oocytes expressing the receptor; format: cell-based; details: FIG. 5
T1 construct: expressed in transfected cells; host or cells: Xenopus oocytes (cDNA injection)
T1 sequence (P36544 with tags, fused parts or gaps K68T/N69T/Q70M/Y151P/I152M/V154L/R155K/W156N/F159M/H163T): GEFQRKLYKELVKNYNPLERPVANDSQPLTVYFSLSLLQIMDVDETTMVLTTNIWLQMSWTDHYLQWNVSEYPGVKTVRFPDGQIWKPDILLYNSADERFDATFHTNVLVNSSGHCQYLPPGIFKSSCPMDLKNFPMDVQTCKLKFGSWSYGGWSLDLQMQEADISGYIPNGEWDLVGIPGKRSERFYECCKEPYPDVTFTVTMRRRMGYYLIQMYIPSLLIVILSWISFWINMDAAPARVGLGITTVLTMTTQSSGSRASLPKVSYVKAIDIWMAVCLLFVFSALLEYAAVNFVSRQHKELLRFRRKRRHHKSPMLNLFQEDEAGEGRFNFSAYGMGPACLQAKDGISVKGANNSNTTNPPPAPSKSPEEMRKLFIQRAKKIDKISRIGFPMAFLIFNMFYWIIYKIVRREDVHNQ
Protocol: (§1) For Xenopus oocyte studies, injections of cDNAs encoding for ion channels at a final concentration of 0.04 μg/μL were performed using a proprietary automated injection device and receptor expression examined at least two days later. Oocytes were poked with two electrodes and their membrane potential maintained at −80 mV throughout the experiment. All recordings were performed at 18° C. and cells were superfused with OR2 medium containing in mM: NaCl 82.5, KCl 2.5, HEPES 5, CaCl2.2H2O 1.8, MgCl2.6H2O 1, pH 7.4. Recordings progressed if oocytes had sufficiently low holding current, in which case they were then subjected to ligand or test compound application (5-10 s wash intervals), with 100 s of wash in between doses. Currents evoked by acetylcholine or other agonists were recorded using an automated process equipped with standard two electrode voltage clamp configuration (TEVC). Data were captured and analyzed using HiQScreen proprietary data acquisition and analysis software running under Matlab (Mathworks Inc.). Acetylcholine was prepared as a concentrated stock solution (10-1 M) in water and then diluted in the recording medium to obtain the desired test concentration. Nicotine was diluted in water as stock solution (10-1 M), kept frozen and diluted immediately prior to the experiment at the desired concentration. Compounds were prepared as stock solution (10-1M) in OR2 and then diluted in the recording medium to obtain the desired test concentration. Stock solution for Compound-1 was made in OR2 at pH 5 adjusted with HCl. To assess that dilution at the final concentration of this stock solution introduced no significant changes, the pH of the final solution was confirmed using a colorimetric assay (Galietta L. J. V., et al. 2001. FEBS Letters 499: 220-224. Kruger W., et al. (2005). Neuroscience Letters 380: 340-345.)
(§2) To better understand the impact of the heterologous domains that had been inserted into the channels, the ligand-dependent response profiles of wild type α7-nAChR and various engineered chimeric LGIC receptors to acetylcholine as well as to non-native ligands TC-6987, AZD-0328, and Facinicline/RG3487 were assessed. Receptors were transiently expressed in […] cells and currents were measured on an automated patch clamp system (Fluxion Biosciences) following 1 second addition of drug. Inclusion of a GlyRα1 Cys-loop sequence in the extracellular domain increased the potency of all small molecules on the engineered receptor (leftward shift in EC50) (e.g. SEQ ID NO:35, FIG. 4C vs SEQ ID NO:16, FIG. 4B). […] Inclusion of both the Cys-loop and β1-β2 loop sequences of GlyRα1 in the extracellular domain reduced the sensitivity by about 1 log from that observed with the full Cys-loop sequence alone, but further increased conductance approximately 2-fold and slowed the rate of deactivation of the channel (SEQ ID NO:41, FIG. 4E vs. SEQ ID NO:33, FIG. 4D).

[2] = target: T2, engineered chimeric LGIC receptor SEQ ID NO:33 (α7-nAChR ligand binding domain with GlyRα1 Cys-loop, GlyRα1 ion pore domain) (Homo sapiens, UniProt P36544, F159M/H163T/I152M/R155K/V154L/W156N/Y151P); assay: as above; format: cell-based
T2 construct: expressed in transfected cells; host or cells: Xenopus oocytes (cDNA injection)
T2 sequence (P36544 with tags, fused parts or gaps Y151P/I152M/V154L/R155K/W156N/F159M/H163T): as the sequence (P36544 with tags, fused parts or gaps K68T/N69T/Q70M/Y151P/I152M/V154L/R155K/W156N/F159M/H163T) above, with T46K, T47N, M48Q counted along it
Protocol: as §1, §2

[3] = system: spared nerve injury (SNI) model; assay: Spared nerve injury (SNI) model of neuropathic pain, mechanical withdrawal threshold (von Frey, up-down method) after AAV.hSYN-α7-nAChR/GlyRα1 injection; format: in vivo, rat; details: single IP injection
Source text: Eight expression cassettes are constructed using standard molecular biology techniques. All contain a human synapsin-1 (hSYN) promoter linked to engineered chimeric receptors comprising a ligand binding domain of α7-nAChR and a Cys-loop domain and ion pore domain of GlyRα1. Their design is as follows:
These cassettes are subcloned into AAV bacmids, purified, transfected into Sf9 insect cells to produce recombinant bacuvlovirus, and then amplified. Sf9 cells are double infected using the amplified recombinant baculovirus containing the hSYN-α7-nAChR/GlyRα1 cassettes and another recombinant baculovirus containing the Rep and AAV6(Y705+731F+T492V) Cap genes to produce recombinant AAV vectors. The viral vectors are purified, viral titer determined using qPCR, and SDS-PAGE used to verify the purity of AAV vectors.
To produce mechanical hypersensitivity in a model that mimics a neuropathic pain condition, the spared nerve injury (SNI) model (a validated model of mechanical allodynia) is used (Shields et al., 2003, The Journal of Pain, 4, 465-470). This model is produced by the sectioning of the common peroneal and the sural nerves and isolating the tibial branch. Mechanical withdrawal threshold is assessed by placing rats on an elevated wire-mesh grid and stimulating the plantar surface of the hind paw with von Frey filaments.
A dorsal hemilaminectomy is made at the level of the lumbar enlargement to expose two segments (about 1.5-2 mm) of lumbar spinal cord, after which the dura mater is incised and reflected. The viral solution is loaded into a glass micropipette (prefilled with mineral oil). The micropipette is connected to a manual micro-injector mounted on a stereotactic apparatus. The viral solution is targeted to the dorsal horn (left side). Along the rostro-caudal axis within the exposed region, 6 injections of 240 nl each are performed, in an equidistant linear fashion. After each injection, 1 min of resting time is observed and then the muscle layer is sutured, the skin closed with staples, and the animals were allowed to recover with heated-pad before they were returned to their home cages. Animals are perfused for histological analysis after the last behavior test.
The injection is performed with a borosilicate glass capillary (0.78/1 mm internal/external diameters) pulled to a fine point, attached by polyethylene tubing (0.4/0.8 mm internal/external diameters) to a syringe mounted in a microinjection pump. The needle is mounted on an extended arm of a stereotaxic frame swung to the outside (used to hold and manipulate the needle only). Tubing, syringe, and needle are all filled with water. One microliter air is taken up into the needle followed by 3 μL of the viral vector solution. The needle is loaded separately with this volume for each injection. Animals are anesthetized prior to surgery. Following an incision along the dorsal midline, the L4 and L5 DRG are exposed by removal of the lateral processes of the vertebrae. The epineurium lying over the DRG is opened, and the glass needle inserted into the ganglion, to a depth of 400 μm from the surface of the exposed ganglion. After a 3-minute delay to allow sealing of the tissue around the glass capillary tip, 1.1 μL virus solution was injected at a rate of 0.2 μL/minute. After a further delay of 2 minutes, the needle is removed. The L4 ganglion is injected first followed by the L5 ganglion. The muscles overlying the spinal cord are loosely sutured together with a 5-0 suture and the wound closed. Animals are allowed to recover at 37° C. and received postoperative analgesia.
Rats are first anesthetized and then placed vertically with their head fixed in a stereotaxic frame. An incision is made in the base of the neck to expose the groove in the nuchal crest. An incision is made (1-2 mm) in the cisternal membrane to a depth such that cerebrospinal fluid leaks out. […]

c1ccc(-c2nnc(O[C@@H]3C4CC5C[C@H]3CN(C5)C4)s2)cc1 [ABT-126]
sensitivity of SEQ ID NO:41 to ligand compared with wild type α7-nAChR [1]: comparably sensitive | sensitivity of SEQ ID NO:33 to ligand compared with wild type α7-nAChR ([2]; Xenopus oocytes, FIG. 5): approximately as sensitive

O=C(N[C@@H]1CN2CCC1CC2)c1n[nH]c2ccccc12 [Facinicline/RG3487]
EC50 on SEQ ID NO:41 fold lower (left shifted) than for wild type [1]: approximately 2 fold | sensitivity of SEQ ID NO:41 compared with SEQ ID NO:33 [1]: less sensitive | fold more sensitive than wild type α7-nAChR ([2]; Xenopus oocytes, FIG. 5): ~10 fold | reversal of mechanical hypersensitivity ([3]; high dose of ligand, all rats (Chimera 1-8)): complete reversal | reversal of mechanical hypersensitivity ([3]; low dose, rats receiving Chimera 1, 2, 4, 5, 6 and 8): complete reversal | reversal of mechanical hypersensitivity ([3]; low dose, rats receiving Chimera 3 and 7): partial reversal

O=C(N[C@@H]1C2CCN(CC2)[C@H]1Cc1cccnc1)c1cc(F)cc(F)c1 [TC-6987]
sensitivity of SEQ ID NO:41 to ligand compared with wild type α7-nAChR [1]: comparably sensitive | sensitivity of SEQ ID NO:33 to ligand compared with wild type α7-nAChR ([2]; Xenopus oocytes, FIG. 5): approximately as sensitive | agonist activity on SEQ ID NO:33 ([2]; similar to wild type): partial agonist activity

CN1CCCC1c1cccnc1 (stereo not shown) [nicotine]
EC50 on SEQ ID NO:41 fold larger (right shifted) than for wild type [1]: ~7 fold | fold less sensitive than wild type α7-nAChR ([2]; Xenopus oocytes, FIG. 5): approximately 2 fold
